In patent publication US20060216699A1, “Peptides for the detection of HIV-1 group O” (priority 1998, published 2006):

What was measured:
[1] = test system: anti-HIV-1 group O antibodies present in human serum; assay: Antibody capture format: peptide on solid phase, bound antibody detected with peptide-HRP conjugate; type: binding; conditions: same peptide as Ag and as HRP conjugate (1:100)
Protocol: In peptide 147-5, the N-terminal glycine was added to function as a spacer group, while the arginine in position 2 was added to enhance the solubility of the peptide in aqueous buffers. Both of these peptides were evaluated for their ability to be recognized by HIV-1 group O serum samples in an antibody capture format. In general, in such an assay, a peptide is bound to a solid phase and bivalent antibody presents in a sample binds to the peptide linked thereto. Bound antibody is subsequently detected using a conjugate made of the peptide in question coupled to horseradish peroxidase. The peptide-HRP conjugate binds to antibody which in turn is bound to the solid phase linked peptide. Methods suitable for preparing such conjugates may be found readily in the scientific literature and are well known to those versed in the art.
Microwell plates were pre-coated with either peptide 147-4 or 147-5. A dilution of a serum sample was then incubated for 1 hour at 37° C., after which the plate was washed extensively. A 1:100 dilution of either peptide 147-4 or 147-5 conjugated to HRP was then added and allowed to incubate for an additional hour at 37° C. Following this incubation, the plates were again thoroughly washed. The presence of bound conjugate was detected by addition of substrate for HRP (O-phenylenediamine) and H2O2.
The peptides were evaluated for their ability to be recognized by anti-HIV-1 group O antibodies present in human serum from infected individuals. All group O samples were confirmed to be positive for HIV-1 group O by reverse transcriptase-polymerase chain reaction (RT-PCR) amplification of viral gp41 sequences using O-specific primers. The identity of the PCR product was further confirmed by DNA sequencing.

[2] = test system: antibodies to HIV-1 group O; assay: Chemiluminescent ELISA: serially diluted peptide on streptavidin-coated wells, serum ODS007b 1:60, anti-human IgG:HRP, luminol; type: binding; conditions: serum ODS007b 1:60
Protocol: To compare the performance of peptide 147 to another genuine group O sequence, the peptide corresponding to the ANT70 sequence was synthesized (peptide 80). Peptides 147 and 80 were dissolved at the same concentration, serially diluted, and bound to streptavidin-coated wells. A 1:60 dilution of serum sample ODS007b (see Table 3) was added to all wells and incubated. After washing, an anti-human IgG:HRP conjugate was added, incubated, and the wells again thoroughly washed. In this case, a chemiluminescent substrate was used, consisting of luminol and a peracid salt. The emitted light was quantified using a luminometer. The results are tabulated in Table 4 and shown graphically in FIG. 2.

[3] = test system: type B sample; assay: ELISA with recombinant antigen coated at 0.5 μg/ml, type B sample; type: binding, human
[4] = test system: group O antibody; assay: ELISA with recombinant antigen coated at 0.5 μg/ml, group O sera, HRP-labeled mouse anti-human IgG; type: binding
Protocol: Performance of group M/group O “mosaic” constructs for group O antibody detection. The protein expressed as described was coated at a concentration of 0.5 μg/ml into the wells of microtiter plates for evaluation. Following coating of the protein, any remaining binding sites on the plastic were block with bovine serum albumin. Dilutions of group O sera were then tested for their ability to recognize the recombinant antigen. Bound antibodies were detected by incubation with HRP-labeled mouse anti-human IgG conjugate, and the bound conjugate was subsequently detected by addition of OPD and H2O2.

EQQRLNSWGCKGRIICYTSARWH (HIV Consensus) [peptide 147-4, variant of peptide 147]
Optical Density (OD)492 ([1]; negative control): 0.010 OD
Optical Density (OD)492 ([1]; sample ODS001 (1:200)): >2.500 OD
Optical Density (OD)492 ([1]; sample ODS002 (1:175)): 0.785 OD
Optical Density (OD)492 ([1]; sample ODS006 (1:100)): 0.133 OD
Optical Density (OD)492 ([1]; sample ODS007 (1:1,500)): 0.241 OD

NQQLLSLWGCKGKLVCYTSVKWN (Human immunodeficiency virus type 1) [peptide 80, reference compound]
luminescent units ([2]; peptide 0.020 ug/ml): 0.387 luminescent units
luminescent units ([2]; peptide 0.039 ug/ml): 0.376 luminescent units
luminescent units ([2]; peptide 0.078 ug/ml): 0.621 luminescent units
luminescent units ([2]; peptide 0.156 ug/ml): 1.288 luminescent units
luminescent units ([2]; peptide 0.313 ug/ml): 2.294 luminescent units
luminescent units ([2]; peptide 0.625 ug/ml): 2.854 luminescent units
luminescent units ([2]; peptide 1.250 ug/ml): 2.908 luminescent units
luminescent units ([2]; peptide 2.500 ug/ml): 1.821 luminescent units

GRETLMQDQQRLNSWGCKGRIICYTSARWH (HIV Consensus) [peptide 147-5, longer variant of peptide 147 with N-terminal glycine spacer and arginine to enhance solubility]
Optical Density (OD)492 ([1]; negative control): 0.022 OD
Optical Density (OD)492 ([1]; sample ODS001 (1:200)): >2.500 OD
Optical Density (OD)492 ([1]; sample ODS002 (1:175)): 1.343 OD
Optical Density (OD)492 ([1]; sample ODS006 (1:100)): 0.266 OD
Optical Density (OD)492 ([1]; sample ODS007 (1:1,500)): 0.316 OD

B1: DHFR-hES-MH: truncated dihydrofolate reductase fusion, mosaic group M/group O gp41 recombinant antigen with myc sequence and his6 tail (protein)
chain: MRGSGIMVRPLNSIVAVSQNMGIGKNGDLPWPPLRNEFKYFQRMTTTSSVEGKQNLVIMGRKTWFSIPEKNRPLKDRINIVLSRELKEPPRGAHFLAKSLDDALRLIEQPELASKVDMVWIVGGSSVYQEAMNQPGHLRLFVTRIMQEFESDTFFPEIDLGKYKLLPEYPGVLSEVQEEKGIKYKFEVYEKKGSRSARLLLSGIVQQQNNLLRAIEAQQHMLQLTAWGIKQLRARLQALETLMQNQQRLNSWGCKGRIICYTSARWHASWSNKSLEDIWDNMTWMQWDQQVNNVSSIIYDKILEAQDQQEENVRELLELDKWASLWNWFDITNWLWYIKIFIMIVGPEQKLISEEDLNSAVDHHHHHH
modifications: HIV Consensus
OD492 [3]: 0.685 OD
OD492 ([4]; sample ODS001 (dilution)): 1.179 OD
OD492 ([4]; sample ODS002 (dilution)): 1.323 OD
OD492 ([4]; sample neg. control 1): −0.061 OD
